Experiment [1] relates to phosphorylation of the IRF-3 protein in MDA-MB-468 cells. The experiment in a line: pIRF3 immunocytochemistry cell based assay. The note with it: MDA-MB-468 cells, Poly(I:C) stimulation, read-out: pIRF3 IC50. Summed up:
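After 2 h stimulation with Poly(I:C) (10 ug/ml), following 1 h compound pre-treatment (10-point, 3-fold dilution, top 10 uM), MDA-MB-468 cells were fixed and stained with anti-pIRF3 antibody. pIRF3 fluorescence was normalized to PI staining or cell count on an Acumen cytometer. IC50 curves were derived from this.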

A further experiment addresses T1, TBK1 (Homo sapiens, UniProt Q9UHD2).
T1 sequence (Q9UHD2 1-729): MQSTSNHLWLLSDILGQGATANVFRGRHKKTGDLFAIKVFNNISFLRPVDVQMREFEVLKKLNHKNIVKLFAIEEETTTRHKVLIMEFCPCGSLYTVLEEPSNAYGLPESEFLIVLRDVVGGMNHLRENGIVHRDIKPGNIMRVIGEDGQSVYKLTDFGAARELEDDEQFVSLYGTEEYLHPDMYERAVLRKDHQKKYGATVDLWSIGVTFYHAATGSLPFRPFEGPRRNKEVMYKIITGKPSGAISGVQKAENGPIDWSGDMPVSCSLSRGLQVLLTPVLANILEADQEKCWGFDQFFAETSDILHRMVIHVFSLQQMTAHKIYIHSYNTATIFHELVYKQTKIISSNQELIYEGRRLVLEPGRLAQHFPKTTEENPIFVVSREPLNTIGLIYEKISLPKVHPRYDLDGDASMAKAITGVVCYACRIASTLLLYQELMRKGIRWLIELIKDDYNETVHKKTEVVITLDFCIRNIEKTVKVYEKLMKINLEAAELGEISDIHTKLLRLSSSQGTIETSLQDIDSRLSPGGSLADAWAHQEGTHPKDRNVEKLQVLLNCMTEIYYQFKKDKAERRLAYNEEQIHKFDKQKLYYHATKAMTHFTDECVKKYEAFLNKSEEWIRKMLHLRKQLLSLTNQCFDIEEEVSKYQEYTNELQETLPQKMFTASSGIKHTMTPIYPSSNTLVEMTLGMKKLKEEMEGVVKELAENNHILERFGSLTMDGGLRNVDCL
The experiment in a line: TBK Biochemical Assay. The note with it: read-out: TBK1 IC50. The method in brief:
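Caliper LabChip mobility-shift readout of substrate and product after 90 min of TBK1 reaction at 25° C and stop-buffer addition. Compounds tested in 1:4 serial dilution over 10 points from 30 uM final at 1% DMSO; staurosporine 10 uM final defines full inhibition.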

The next experiment concerns the target T2, IKKε (Homo sapiens, UniProt Q14164).
T2 sequence (Q14164 1-716): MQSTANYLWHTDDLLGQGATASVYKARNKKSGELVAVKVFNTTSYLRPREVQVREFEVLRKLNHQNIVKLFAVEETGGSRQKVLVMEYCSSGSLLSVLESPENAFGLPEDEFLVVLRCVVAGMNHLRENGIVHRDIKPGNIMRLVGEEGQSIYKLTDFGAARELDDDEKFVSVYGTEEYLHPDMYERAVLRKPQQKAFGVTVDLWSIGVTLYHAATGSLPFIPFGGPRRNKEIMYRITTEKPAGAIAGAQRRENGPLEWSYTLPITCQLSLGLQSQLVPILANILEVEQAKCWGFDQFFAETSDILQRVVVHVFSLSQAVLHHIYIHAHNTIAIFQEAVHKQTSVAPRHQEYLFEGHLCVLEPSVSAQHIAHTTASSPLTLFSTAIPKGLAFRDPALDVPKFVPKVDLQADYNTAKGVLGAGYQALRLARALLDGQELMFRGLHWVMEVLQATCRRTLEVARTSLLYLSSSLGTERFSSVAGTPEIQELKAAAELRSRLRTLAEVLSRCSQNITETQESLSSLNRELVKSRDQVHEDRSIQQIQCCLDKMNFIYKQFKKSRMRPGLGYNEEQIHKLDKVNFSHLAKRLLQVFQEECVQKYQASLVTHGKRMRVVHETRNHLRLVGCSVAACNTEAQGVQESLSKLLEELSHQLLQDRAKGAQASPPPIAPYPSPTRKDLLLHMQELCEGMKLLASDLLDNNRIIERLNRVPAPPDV
As to the kind of experiment: IKKe Biochemical Assay. The note with it: read-out: IKKε IC50. Summed up:
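Activity was measured as mobility-shift separation of phosphorylated from unphosphorylated substrate on a LabChip EZ Reader. Compound was titrated from 30 uM final in 10 points, 1:4 steps, with 1% DMSO, and enzyme plus substrate reacted 90 min at 25° C before stop buffer. Control wells held 10 uM staurosporine.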

Where two headings read alike, the source gives them in different places.

With `COc1cc(C(=O)N(C)C)cnc1-c1cc2nccc(-c3ccc(NC4CCN(C)C4)c(C#N)c3)c2o1` (stereo not drawn) [Compound 433, 6-(7-[3-cyano-4-[(1-methylpyrrolidin-3-yl)amino]phenyl]furo[3,2-b]pyridin-2-yl)-5-methoxy-N,N-dimethylpyridine-3-carboxamide], the IC50 (in experiment [1] (Homo sapiens); at TBK1; on IKKε) was under 100 nM in each case.

`COc1cc(C(=O)N(C)C)ncc1-c1cc2nccc(-c3ccc(NC4CCN(C)C4)c(C#N)c3)c2o1` (stereo not drawn) [Compound 434, 5-(7-[3-cyano-4-[(1-methylpyrrolidin-3-yl)amino]phenyl]furo[3,2-b]pyridin-2-yl)-4-methoxy-N,N-dimethylpyridine-2-carboxamide]: the IC50 (in experiment [1] (Homo sapiens); at TBK1; on IKKε) was under 100 nM throughout.

As to `COc1cc(C(=O)N2CC3CC(C2)O3)cnc1-c1cc2nccc(-c3ccc(OC4CCOCC4)c(C#N)c3)c2o1` [Compound 435, 5-[2-[3-methoxy-5-([6-oxa-3-azabicyclo[3.1.1]heptan-3-yl]carbonyl)pyridin-2-yl]furo[3,2-b]pyridin-7-yl]-2-(oxan-4-yloxy)benzonitrile], the IC50 (in experiment [1] (Homo sapiens); on TBK1; at IKKε) was under 100 nM in each case.

As for `COc1cc(C(=O)N(C)C)cnc1-c1cc2nccc(-c3ccc(NC4C5COCC54)c(C#N)c3)c2o1` (stereo not drawn) [Compound 436, 6-[7-[3-cyano-4-([3-oxabicyclo[3.1.0]hexan-6-yl]amino)phenyl]furo[3,2-b]pyridin-2-yl]-5-methoxy-N,N-dimethylpyridine-3-carboxamide], the IC50 (in experiment [1] (Homo sapiens); on TBK1; on IKKε) was under 100 nM throughout.

For the molecule `COc1cc(C(=O)N(C)C)ncc1-c1cc2nccc(-c3ccc(NC4C5COCC54)c(C#N)c3)c2o1` (stereo not drawn) [Compound 437, 5-[7-[3-cyano-4-([3-oxabicyclo[3.1.0]hexan-6-yl]amino)phenyl]furo[3,2-b]pyridin-2-yl]-4-methoxy-N,N-dimethylpyridine-2-carboxamide], the IC50 is 100 to 1000 nM in experiment [1] (Homo sapiens), under 100 nM on TBK1 and under 100 nM at IKKε.

For `COc1cc(C(=O)NC2CN3CCC2CC3)cnc1-c1cc2nccc(-c3ccc(N4CCC(F)C4)c(C#N)c3)c2o1` (stereo not drawn) [Compound 438, N-[1-azabicyclo[2.2.2]octan-3-yl]-6-[7-[3-cyano-4-(3-fluoropyrrolidin-1-yl)phenyl]furo[3,2-b]pyridin-2-yl]-5-methoxypyridine-3-carboxamide], the results for the IC50 (in experiment [1] (Homo sapiens); on TBK1; on IKKε) were 100 to 1000 nM, under 100 nM and under 100 nM, respectively.

`COc1cc(C(=O)NC2CN3CCC2CC3)cnc1-c1cc2nccc(-c3ccc(N4CC[C@H](F)C4)c(C#N)c3)c2o1` (stereo partly drawn) [Compound 439, N—(S)-1-Aza-bicyclo[2.20.2]oct-3-yl-6-{7-[3-cyano-4-((S)-3-fluoro-pyrrolidin-1-yl)-phenyl]-furo[3,2-b]pyridin-2-yl}-5-methoxy-nicotinamide]: the IC50 was 100 to 1000 nM in experiment [1] (Homo sapiens), under 100 nM on TBK1 and under 100 nM on IKKε.

On to `COc1cc(C(=O)NC2CN3CCC2CC3)cnc1-c1cc2nccc(-c3ccc(N4CC[C@@H](F)C4)c(C#N)c3)c2o1` (stereo partly drawn) [Compound 440, N—(S)-1-Aza-bicyclo[2.20.2]oct-3-yl-6-{7-[3-cyano-4-((R)-3-fluoro-pyrrolidin-1-yl)-phenyl]-furo[3,2-b]pyridin-2-yl}-5-methoxy-nicotinamide], for which the values for the IC50 (in experiment [1] (Homo sapiens); on TBK1; on IKKε) were 100 to 1000 nM, under 100 nM and under 100 nM, respectively.

As to `COc1cc(C(=O)NC2CN3CCC2CC3)cnc1-c1cc2nccc(-c3ccc(N4CC[C@H](F)C4)c(C#N)c3)c2o1` (stereo partly drawn) [Compound 441, N—(R)-1-Aza-bicyclo[2.20.2]oct-3-yl-6-{7-[3-cyano-4-((S)-3-fluoro-pyrrolidin-1-yl)-phenyl]-furo[3,2-b]pyridin-2-yl}-5-methoxy-nicotinamide], the results for the IC50 (in experiment [1]; at TBK1; at IKKε) were 100 to 1000 nM, under 100 nM and under 100 nM, respectively.

The term IC50 denotes the point on the concentration scale where inhibition reaches its midpoint.

For the origin of these results see patent publication US10428080B2, “TBK/IKK inhibitor compounds and uses thereof” (Merck Patent GmbH, priority 2015, dated 2019).
